Reference: US12398128B2, “Physics-driven discovery of novel small therapeutic compounds for use as a BCL-2 inhibitor” (BAHCESEHIR UNIVERSITESI, priority 2021, dated 2025)

Tested on: HCT-116 colon cancer cell line
Assay: MTT cell proliferation assay on HCT-116 cells
Format: cell-based
Description: For cell culture experiments various cancer cell lines, HCT-116 colon cancer, U87-MG glial tumor, MCF7 breast cancer cell lines were used. Cells were seeded with high glucose DMEM medium (Biosera) supplemented with 10% FBS (Gibco) and 1× penicillin/streptomycin (Multicell). Twenty-four hours prior to molecule treatment, 10,000 cells were seeded into each well of 24-well cell culture plates. Molecules were used by preparing 4 mM stock solution in DMSO (Amresco). For molecule treatment, molecule stock solutions were diluted in DMEM with 10% FBS and added onto cells in each corresponding well. Final concentration of vehicle DMSO was 2% at maximum. Therefore, the vehicle group in experiments only included maximum of 2% DMSO concentration. We calculated the number of cells to be seeded to make sure that none of the cells reaches more than 60% confluency during the treatment period, as higher plate confluency levels would slow down cell proliferation independently from the molecule treatment.
Values of half-maximal inhibitory concentration were (IC50) determined by MTT cell proliferation assays. Different concentrations of molecules ranging between 10^-9 to 10^-4 M were tested on HCT-116 cell lines with single treatment. 570 nm absorbance values were recorded and IC50 values were calculated by dose response-inhibition curves and nonlinear regression analysis on GraphPad Prism 8 software. For cell proliferation assays we performed five days experiments and repeated experiments at least three times with all cell lines. […] Therefore, three days results were presented. MTT analysis were performed on 24-well plates with initially 1×10^4 cells/well, grown overnight, and then treated with the selected molecules with different concentrations for at least 3 days. Following the initial incubation day, molecules were added and after incubation with MTT at 37° C. for 4 hours, formazan was solubilized with DMSO (Sigma-Aldrich, St. Louis, USA) and absorbance was measured at 570 nm. […] The IC50 value of compound of formula I was determined to be 22 μm (FIG. 1).

IC50 (Homo sapiens, 72 h, HCT-116 cells, single treatment, 10^-9 to 10^-4 M, 570 nm absorbance, three days results, read-out: IC50 (half-maximal inhibitory concentration), MTT cell proliferation assay): 22 µM
Structure (SMILES): O=C(CSc1nc2ccc(N3C(=O)c4ccccc4C3=O)cc2s1)c1ccc(-c2ccccc2)cc1 [compound of formula I]
cell morphology of treated HCT-116 cells (HCT-116 cells treated with compound versus vehicle group): apoptotic cell structures
proliferation of HCT-116 cells versus vehicle group (FIG. 1) (HCT-116 cells, MTT, cell viability over time, vehicle max 2% DMSO): reduced proliferation
